Reference: PMC6893700 (Viruses, 2019)
Where two headings read alike, the source gives them in different places.

Columns and labels:
[1] = in vitro; details: African green monkey
[2] = system: ZIKV strain R103451; test: Plaque reduction inhibition assay, ZIKV R103451 in Vero E6 cells; type: cell-based; details: Zika virus
[3] = system: ZIKV strain IbH 30656; test: Plaque reduction inhibition assay, ZIKV IbH 30656 in Vero E6 cells; type: cell-based; details: Zika virus
[4] = system: ZIKV strain PLCal_ZV; test: Plaque reduction inhibition assay, ZIKV PLCal_ZV in Vero E6 cells; type: cell-based; details: Zika virus
[5] = molecular target: binding between ZIKV EDIII protein and EDIII-specific human mAbs (Zika virus, UniProt A0A024B7W1); details: ELISA; no binding between ZKA78 and EDIII
Sequence of binding between ZIKV EDIII protein and EDIII-specific human mAbs (A0A024B7W1 588-699): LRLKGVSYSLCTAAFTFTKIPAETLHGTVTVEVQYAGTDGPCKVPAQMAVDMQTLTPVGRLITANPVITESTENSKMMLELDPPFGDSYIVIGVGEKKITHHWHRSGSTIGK

[6] = system: ZIKV strain PAN2016; type: cell-based, Zika virus (ZIKV); details: for IC50: Zika virus
[7] = system: ZIKV (PAN2016); test: Time-of-addition experiment, ZIKV PAN2016 in Vero E6 cells; type: cell-based, Zika virus (ZIKV); details: for inhibition of ZIKV infection, step c: cotreatment at 4 °C (attachment): ZIKV and natural product 4 °C 1 h; for inhibition of ZIKV infection, step a: pretreatment of ZIKV: natural product with ZIKV 37 °C 1 h before cells; for inhibition at 30 µM: Zika virus, Vero C1008, 1 h
[8] = system: DENV-1-V1792; test: Plaque reduction inhibition assay, DENV-1 in LLC-MK2 cells; type: cell-based; details: Dengue virus, DENV1
[9] = system: DENV-2-V594; test: Plaque reduction inhibition assay, DENV-2 in LLC-MK2 cells; type: cell-based; details: Dengue virus, DENV2
[10] = system: Vero E6 cells; test: Initial screening: cytotoxicity observed under a microscope; details: initial screening at 20 µM
[11] = system: ZIKV mosquito strain MEX 2–81; test: Plaque reduction inhibition assay, ZIKV MEX 2–81 in Vero E6 cells; type: cell-based; details: Zika virus
[12] = in vitro; details: African green monkey; remark: listed apart in the source
[13] = system: nine ZIKV strains; test: Plaque reduction inhibition assay, nine additional ZIKV strains (summary); type: cell-based; details: Zika virus, Vero C1008; range over nine additional ZIKV strains, Vero E6 cells; read-out: IC50 values against all nine ZIKV strains tested
[14] = system: ZIKV strain FLR; type: cell-based, Zika virus (ZIKV); details: for IC50: Zika virus
[15] = system: ZIKV strain FLR; test: Plaque reduction inhibition assay, ZIKV FLR in Vero E6 cells; type: cell-based; details: Zika virus
[16] = system: DENV-3-V1043; test: Plaque reduction inhibition assay, DENV-3 in LLC-MK2 cells; type: cell-based; details: Dengue virus, DENV3
[17] = system: ZIKV strain PAN2016; test: Plaque reduction inhibition assay, ZIKV PAN2016 in Vero E6 cells; type: cell-based; details: Zika virus
[18] = system: DENV-4-PR 06-65-740; test: Plaque reduction inhibition assay, DENV-4 in LLC-MK2 cells; type: cell-based; details: Dengue virus, DENV4
[19] = in vitro; details: rhesus monkey
[20] = system: ZIKV rhesus macaque strain MR 766; test: Plaque reduction inhibition assay, ZIKV MR 766 in Vero E6 cells; type: cell-based; details: Zika virus, Vero C1008, in Macaca mulatta, read-out: IC50 MR 766
[21] = system: ZIKV strain PRVABC59; test: Plaque reduction inhibition assay, ZIKV PRVABC59 in Vero E6 cells; type: cell-based; details: Zika virus
[22] = molecular target: T1, ZIKV envelope protein domain III (EDIII) protein (Zika virus, UniProt A0A024B7W1); type: binding
T1 construct: E residues 298–409 fused with a C-terminal human Fc; made in house
T1 sequence (A0A024B7W1 588-699): as above

[23] = system: ZIKV strain PRVABC59; type: cell-based, Zika virus (ZIKV)
[24] = system: ZIKV strain PAN2015; test: Plaque reduction inhibition assay, ZIKV PAN2015 in Vero E6 cells; type: cell-based; details: Zika virus, Vero C1008
[25] = system: Vero E6 cells; test: Combinatorial cytotoxicity of gossypol with other natural products, CCK8; details: Vero E6; (CC50 alone)/(CC50 in the mixture)—1
[26] = system: Vero E6 cells
[27] = molecular target: ZIKV full-length E protein (Zika virus, UniProt A0A024B7W1); type: binding; details: ELISA
Sequence of ZIKV full-length E protein (A0A024B7W1 291-794): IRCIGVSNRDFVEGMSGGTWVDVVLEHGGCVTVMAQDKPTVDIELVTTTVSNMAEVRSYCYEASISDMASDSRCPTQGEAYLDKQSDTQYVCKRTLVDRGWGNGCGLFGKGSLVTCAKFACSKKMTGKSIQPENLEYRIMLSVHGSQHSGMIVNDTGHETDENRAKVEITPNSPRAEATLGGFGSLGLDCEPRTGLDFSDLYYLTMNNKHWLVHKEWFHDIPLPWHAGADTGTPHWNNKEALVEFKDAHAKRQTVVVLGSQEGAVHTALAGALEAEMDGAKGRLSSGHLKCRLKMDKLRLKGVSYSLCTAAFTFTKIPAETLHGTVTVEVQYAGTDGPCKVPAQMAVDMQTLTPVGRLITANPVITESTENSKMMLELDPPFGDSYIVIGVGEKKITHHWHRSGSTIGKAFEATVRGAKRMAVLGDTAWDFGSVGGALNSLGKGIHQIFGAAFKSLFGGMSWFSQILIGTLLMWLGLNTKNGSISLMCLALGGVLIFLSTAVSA

[28] = system: ZIKV strain R116265; test: Plaque reduction inhibition assay, ZIKV R116265 in Vero E6 cells; type: cell-based; details: Zika virus, Vero C1008
[29] = Vero C1008, read-out: IC50 Alone
[30] = cells, gossypol 15 µM, curcumin 30 µM, digitonin 7.5 µM, conessine 30 µM
[31] = gossypol 15 µM, curcumin 30 µM, digitonin 7.5 µM, conessine 30 µM

## Cc1cc2c(C(C)C)c(O)c(O)c(C=O)c2c(O)c1-c1c(C)cc2c(C(C)C)c(O)c(O)c(C=O)c2c1O [Gossypol, gossypol]
[1]
  CC50 at 3 days: 14.8 ± 0.42 µM
[2]; Vero C1008, read-out: IC50 R103451
  IC50: 2.28 ± 0.1 µM
[3]; Vero C1008, read-out: IC50 IbH 30656
  IC50: 3.31 ± 0.11 µM
[4]; Vero C1008, read-out: IC50 PLCal_ZV
  IC50: 1.98 ± 0.07 µM
[5]
  inhibition with control mAb ZKA78 (EDI/DII-specific): no obvious inhibition
[6]; [29]
  IC50: 3.79 ± 0.01 µM
[7]; cells with ZIKV 4 °C 1 h, then natural product 37 °C 1 h, gossypol 15 µM, curcumin 30 µM, digitonin 7.5 µM, conessine 30 µM
  inhibition of ZIKV infection, step e: penetration (membrane fusion): maintained its infectivity
[7]; cells with ZIKV 37 °C 1 h, then natural product 37 °C 1 h, gossypol 15 µM, curcumin 30 µM, digitonin 7.5 µM, conessine 30 µM
  inhibition of ZIKV infection, step f: postentry stage: maintained its infectivity
[7]; cells with natural product 37 °C 1 h before ZIKV, gossypol 15 µM, curcumin 30 µM, digitonin 7.5 µM, conessine 30 µM
  inhibition of ZIKV infection, step b: pretreatment of cells: maintained its infectivity
[7]; [30]
  inhibition of ZIKV infection, step c: cotreatment at 4 °C (attachment): maintained its infectivity
[7]; cells, ZIKV and natural product 37 °C 1 h, gossypol 15 µM, curcumin 30 µM, digitonin 7.5 µM, conessine 30 µM
  inhibition of ZIKV infection, step d: cotreatment at 37 °C: maintained its infectivity
[7]; [31]
  inhibition of ZIKV infection, step a: pretreatment of ZIKV: completely lost its infectivity
[8]
  IC50: 1.87 ± 0.01 µM
[9]
  IC50: 1.89 ± 0.21 µM
[10]
  cytotoxicity in Vero E6 cells observed under a microscope: no obvious cytotoxicity
[11]; Vero C1008, read-out: IC50 MEX 2–81
  IC50: 2.79 ± 0.01 µM
[12]
  CC50 at 3 days: 14.2 ± 0.74 µM
[13]
  IC50: 0.21 to 4.31 µM
[14]; [29]
  IC50: 0.26 ± 0.01 µM
[15]; Vero C1008, read-out: IC50 FLR
  IC50: 0.21 ± 0.01 µM
[16]
  IC50: 3.7 ± 0.59 µM
[17]; Vero C1008, read-out: IC50 PAN2016
  IC50: 3.48 ± 0.03 µM
[17]; Vero C1008, read-out: IC90 against ZIKV PAN2016 strain
  IC90: ~6.91 µM
[18]
  IC50: 2.6 ± 0.12 µM
[19]
  CC50 at 3 days: 14.5 ± 0.59 µM
[20]
  IC50: 3.75 ± 0.01 µM
[21]; Vero C1008, read-out: IC90 against ZIKV strain PRVABC59
  IC90: ~8.81 µM

## C[C@H]1[C@H]2CC[C@H]3[C@@H]4CC=C5C[C@@H](N(C)C)CC[C@]5(C)[C@H]4CC[C@]23CN1C [Conessine, conessine]
[1]
  CC50 at 3 days: 314.6 ± 2.32 µM
[2]; Vero C1008, plaque reduction, Vero E6 cells, read-out: IC50 R103451
  IC50: 11.6 ± 0.33 µM
[3]; Vero C1008, plaque reduction, Vero E6 cells, read-out: IC50 IbH 30656
  IC50: 10.2 ± 0.41 µM
[22]
  binding to ZIKV EDIII protein (in words): did not bind
[4]; Vero C1008, plaque reduction, Vero E6 cells, read-out: IC50 PLCal_ZV
  IC50: 8.11 ± 0.37 µM
[23]; ZIKV PRVABC59, (IC50 alone)/(IC50 in the mixture)—1
  Fold of Enhancement (natural product with gossypol): 6.29
[23]; ZIKV PRVABC59, CI < 1 synergy
  CI (combination index) of gossypol with the named natural product: 0.28
[23]; Zika virus, Vero C1008, ZIKV PRVABC59, Vero E6, natural product without combination, read-out: IC50 Alone
  IC50: 9.4 ± 0.21 µM
[6]; ZIKV PAN2016, (IC50 alone)/(IC50 in the mixture)—1
  Fold of Enhancement (natural product with gossypol): 3.44
[6]; ZIKV PAN2016, CI < 1 synergy
  CI (combination index) of gossypol with the named natural product: 0.44
[6]; Vero C1008, ZIKV PAN2016, Vero E6, natural product without combination, read-out: IC50 Alone
  IC50: 10 ± 0.25 µM
[7]; read-out: inhibition of ZIKV infection, step d: cotreatment at 37 °C
  inhibition at 30 µM: 80 to 96%
[7]; read-out: inhibition of ZIKV infection, step e: penetration (membrane fusion)
  inhibition at 30 µM: 80 to 96%
[7]; read-out: inhibition of ZIKV infection, step f: postentry stage
  inhibition at 30 µM: 80 to 96%
[7]; [30]
  inhibition of ZIKV infection, step c: cotreatment at 4 °C (attachment): very low to no effect
[7]; [31]
  inhibition of ZIKV infection, step a: pretreatment of ZIKV: very low to no effect
[8]
  IC50: 7.09 ± 0.08 µM
[24]
  IC50: 7.98 ± 0.29 µM
[25]
  Fold of Enhancement of cytotoxicity (natural product with gossypol): ~5.78
[9]
  IC50: 6.61 ± 0.6 µM
[11]; Vero C1008, plaque reduction, Vero E6 cells, read-out: IC50 MEX 2–81
  IC50: 10.94 ± 0.06 µM
[12]
  CC50 at 3 days: 323.71 ± 0.25 µM
[26]
  cytotoxicity in Vero E6 cells observed under a microscope: no obvious cytotoxicity
[14]; ZIKV FLR, (IC50 alone)/(IC50 in the mixture)—1
  Fold of Enhancement (natural product with gossypol): 1.13
[14]; ZIKV FLR, CI < 1 synergy
  CI (combination index) of gossypol with the named natural product: 0.85
[14]; Vero C1008, ZIKV FLR, Vero E6, natural product without combination, read-out: IC50 Alone
  IC50: 10.1 ± 0.45 µM
[15]; Vero C1008, plaque reduction, Vero E6 cells, read-out: IC50 FLR
  IC50: 9.65 ± 0.58 µM
[16]
  IC50: 7.41 ± 0.04 µM
[17]; Vero C1008, 90% plaque reduction, Vero E6 cells, read-out: IC90 against ZIKV PAN2016 strain
  IC90: ~31.8 µM
[17]; Vero C1008, plaque reduction, Vero E6 cells, read-out: IC50 PAN2016
  IC50: 9.75 ± 0.26 µM
[27]
  binding to ZIKV full-length E protein (in words): did not bind
[18]
  IC50: 7.27 ± 0.31 µM
[19]
  CC50 at 3 days: 303 ± 13.4 µM
[20]; plaque reduction, Vero E6 cells
  IC50: 7.44 ± 0.11 µM
[28]
  IC50: 7.18 ± 0.13 µM
[21]; Vero C1008, plaque reduction, Vero E6 cells
  IC50: 9.08 ± 0.33 µM
